Source: patent publication EP4060021A1, “MIMETIC MICROBIOLOGICAL CULTURE MEDIUM AND USES THEREOF” (BIOFILM PHARMA, priority 2021, dated 2022)

Key:
S. aureus = test: Clinical outcome of the prescribed antibiotic therapy (presence/absence of S. aureus in a second sample at end of first-line treatment); type: in vivo, patients diabétiques
Excerpt: • La Figure 1 représente des courbes de croissance de bactéries en fonction du milieu de culture. Sur cette figure, les ordonnées correspondent au logarithme d'unités formant colonie par millilitre de milieu de culture (Log UFC/ml) et les abscisses, au temps en heure (H). La Figure 1A représente les courbes correspondant à la croissance de 2 souches de S. aureus, Newman (gauche) et SAC1 (droite), dans le milieu BHI (courbe avec indicateurs ronds) et un exemple de milieu selon l'invention (MP) (courbe avec indicateurs carrés). La Figure 1B représente les courbes correspondant à la croissance de 2 souches de P. aeruginosa, PAO1 (gauche) et PAC1 (droite), dans le milieu BHI (courbe avec indicateurs ronds) et un exemple de milieu selon l'invention (MP) (courbe avec indicateurs carrés). La Figure 1C représente les courbes correspondant à la croissance de 2 souches cliniques S. aureus SAC1 et P. aeruginosa PAC1, en coculture dans le milieu BHI (P. aeruginosa BHI ou S. aureus BHI) et un exemple de milieu selon l'invention (MP) (P. aeruginosa MP ou S. aureus MP). La mesure de différence significative, réalisée par le test de Student, entre les valeurs d'UFC/mL est exprimée, soit par (***) qui correspond à une p-value <0,001, soit par (**) qui correspond à une p-value <0,01. • La Figure 2 représente les résultats obtenus d'une détermination de l'adhésion et de la formation de biofilm par dénombrement à 24h. Sur cette figure, les ordonnées correspondent au logarithme d'unités formant colonie par millilitre de milieu de culture (Log UFC/ml). La Figure 2A représente un histogramme ou diagramme en bâton du nombre de bactéries dénombrées suite à des cultures séparées de souche S. aureus Newman (Newman), S. aureus SAC1 (SAC 1), P. aeruginosa PAO1 (PAO1) ou P. aeruginosa PAC1 (PAC1), pendant 24H dans un milieu BHI (BHI) (bâtons noirs) ou dans un exemple de milieu selon l'invention (MP) (bâtons gris). La Figure 2B montre sous forme d'histogramme le nombre de bactéries dénombrées suite à des co-cultures des souches de référence S. aureus Newman et P. aeruginosa PAO1 (PAO1/Newman), ainsi que du couple de souches cliniques S. aureus SAC1 et P. aeruginosa PAC1 (PAC 1/SAC1), pendant 24H dans un milieu BHI (BHI) (bâtons noirs) ou dans un exemple de milieu selon l'invention (MP) (bâtons gris). La mesure de différence significative, réalisée par le test de Student, entre les valeurs d'UFC est exprimée, soit par (***) qui correspond à une p-value <0,001, soit par (**) qui correspond à une p-value <0,01. • La Figure 3 représente les résultats obtenus d'une détermination de sensibilité à des antibiotiques de souches cliniques de S. aureus issues d'infections de plaies du pied chez le diabétique. Les données cliniques, anonymisées, nécessaires à l'interprétation des résultats, consistaient en l'antibiothérapie donnée au patient, ainsi que la qualification par les médecins hospitaliers d'un succès ou échec thérapeutique. La définition de succès ou échec thérapeutique est définie comme suit. Le patient commence et suit l'antibiothérapie prescrite et un deuxième prélèvement microbiologique est effectué lors du dernier jour de traitement de la 1ère antibiothérapie (± 2 jours). Ce prélèvement est utilisé pour déterminer la présence/absence du pathogène ciblé par l'antibiothérapie, S. aureus. Si ce prélèvement a montré la persistance d'un S. aureus, l'antibiothérapie est en échec. A l'inverse, en cas d'absence de S. aureus, l'antibiothérapie est associée à un succès thérapeutique. Les antibiogrammes ont été réalisés classiquement sur une durée de 18h ± 2h en accord avec les recommandations de l'EUCAST. Une gamme de l'antibiotique à tester a été réalisée. • La Figure 3A montre sous forme d'histogramme les résultats des CMI déduites d'antibiogrammes sur 11 souches testées en présence d'amoxicilline / clavulanate de potassium (commercialisé par exemple sous le nom d'Augmentin (marque déposée)). […]

souche de S. aureus = conditions: modèle de sepsis, souris infectée par S. aureus, traitées; cited from earlier work

CCC[C@@H]1C[C@@H](C(=O)N[C@@H]([C@H]2O[C@H](SC)[C@H](O)[C@@H](O)[C@H]2O)[C@H](C)Cl)N(C)C1 [clindamycine]
Echec: Succès ou échec thérapeutique (S. aureus; souche C01P010) | Succès ou échec thérapeutique (S. aureus; souche C03P005)
Succès: Succès ou échec thérapeutique (S. aureus; souche C01P009) | Succès ou échec thérapeutique (S. aureus; souche C03P003) | Succès ou échec thérapeutique (S. aureus; souche C03P004) | Succès ou échec thérapeutique (S. aureus; souche C03P009)

amoxicilline / clavulanate de potassium [amoxicilline/clavulanate de potassium]
Echec: Succès ou échec thérapeutique (S. aureus; souche C03P008) | Succès ou échec thérapeutique (S. aureus; souche C04P007) | Succès ou échec thérapeutique (S. aureus; souche C06P001f) | Succès ou échec thérapeutique (S. aureus; souche C06P001 i) | Succès ou échec thérapeutique (S. aureus; souche C06P003f) | Succès ou échec thérapeutique (S. aureus; souche C06P003i)
Succès: Succès ou échec thérapeutique (S. aureus; souche C01P012) | Succès ou échec thérapeutique (S. aureus; souche C03P001) | Succès ou échec thérapeutique (S. aureus; souche C04P003) | Succès ou échec thérapeutique (S. aureus; souche C04P005f) | Succès ou échec thérapeutique (S. aureus; souche C04P005i)

cotrimoxazole
Succès: Succès ou échec thérapeutique (S. aureus; souche C01P0 11)
n'a pas permis la survie des souris: survie des souris (souche de S. aureus)
Echec: Succès ou échec thérapeutique (S. aureus; souche C01P0 01) | Succès ou échec thérapeutique (S. aureus; souche C03P0 02) | Succès ou échec thérapeutique (S. aureus; souche C03P0 07)
